From BigSolDB 2.1

SMILES: CSCC[C@H](NC(C)=O)C(=O)O
- solubility (mole fraction) (in 2-butanone, 283.15 K): 0.0192
- solubility (mole fraction) (in 2-butanone, 288.15 K): 0.0243
- solubility (mole fraction) (in 2-butanone, 293.15 K): 0.0316
- solubility (mole fraction) (in 2-butanone, 298.15 K): 0.0408
- solubility (mole fraction) (in 2-butanone, 303.15 K): 0.0546
- solubility (mole fraction) (in 2-butanone, 308.15 K): 0.0764
- solubility (mole fraction) (in 2-butanone, 313.15 K): 0.112
- solubility (mole fraction) (in 2-butanone, 318.15 K): 0.135
- solubility (mole fraction) (in 2-butanone, 323.15 K): 0.18
- solubility (mole fraction) (in acetone, 283.15 K): 0.0372
- solubility (mole fraction) (in acetone, 288.15 K): 0.0524
- solubility (mole fraction) (in acetone, 293.15 K): 0.0643
- solubility (mole fraction) (in acetone, 298.15 K): 0.0899
- solubility (mole fraction) (in acetone, 303.15 K): 0.118
- solubility (mole fraction) (in acetone, 308.15 K): 0.154
- solubility (mole fraction) (in acetone, 313.15 K): 0.195
- solubility (mole fraction) (in acetone, 318.15 K): 0.231
- solubility (mole fraction) (in acetone, 323.15 K): 0.283
- solubility (mole fraction) (in acetonitrile, 283.15 K): 0.00684
- solubility (mole fraction) (in acetonitrile, 288.15 K): 0.00873
- solubility (mole fraction) (in acetonitrile, 293.15 K): 0.0119
- solubility (mole fraction) (in acetonitrile, 298.15 K): 0.0167
- solubility (mole fraction) (in acetonitrile, 303.15 K): 0.0238
- solubility (mole fraction) (in acetonitrile, 308.15 K): 0.0354
- solubility (mole fraction) (in acetonitrile, 313.15 K): 0.0549
- solubility (mole fraction) (in acetonitrile, 318.15 K): 0.0912
- solubility (mole fraction) (in acetonitrile, 323.15 K): 0.154
- solubility (mole fraction) (in dimethyl carbonate, 283.15 K): 0.00222
- solubility (mole fraction) (in dimethyl carbonate, 288.15 K): 0.00268
- solubility (mole fraction) (in dimethyl carbonate, 293.15 K): 0.00369
- solubility (mole fraction) (in dimethyl carbonate, 298.15 K): 0.00531
- solubility (mole fraction) (in dimethyl carbonate, 303.15 K): 0.00614
- solubility (mole fraction) (in dimethyl carbonate, 308.15 K): 0.00835
- solubility (mole fraction) (in dimethyl carbonate, 313.15 K): 0.0109
- solubility (mole fraction) (in dimethyl carbonate, 318.15 K): 0.0151
- solubility (mole fraction) (in dimethyl carbonate, 323.15 K): 0.0216
- solubility (mole fraction) (in ethanol, 283.15 K): 0.0966
- solubility (mole fraction) (in ethanol, 288.15 K): 0.121
- solubility (mole fraction) (in ethanol, 293.15 K): 0.145
- solubility (mole fraction) (in ethanol, 298.15 K): 0.163
- solubility (mole fraction) (in ethanol, 303.15 K): 0.186
- solubility (mole fraction) (in ethanol, 308.15 K): 0.222
- solubility (mole fraction) (in ethanol, 313.15 K): 0.285
- solubility (mole fraction) (in ethanol, 318.15 K): 0.343
- solubility (mole fraction) (in ethanol, 323.15 K): 0.409
- solubility (mole fraction) (in ethyl acetate, 283.15 K): 0.00553
- solubility (mole fraction) (in ethyl acetate, 288.15 K): 0.00645
- solubility (mole fraction) (in ethyl acetate, 293.15 K): 0.00846
- solubility (mole fraction) (in ethyl acetate, 298.15 K): 0.0101
- solubility (mole fraction) (in ethyl acetate, 303.15 K): 0.0134
- solubility (mole fraction) (in ethyl acetate, 308.15 K): 0.0169
- solubility (mole fraction) (in ethyl acetate, 313.15 K): 0.022
- solubility (mole fraction) (in ethyl acetate, 318.15 K): 0.0284
- solubility (mole fraction) (in ethyl acetate, 323.15 K): 0.0399
- solubility (mole fraction) (in methyl acetate, 283.15 K): 0.00709
- solubility (mole fraction) (in methyl acetate, 288.15 K): 0.00877
- solubility (mole fraction) (in methyl acetate, 293.15 K): 0.0113
- solubility (mole fraction) (in methyl acetate, 298.15 K): 0.015
- solubility (mole fraction) (in methyl acetate, 303.15 K): 0.0193
- solubility (mole fraction) (in methyl acetate, 308.15 K): 0.026
- solubility (mole fraction) (in methyl acetate, 313.15 K): 0.0358
- solubility (mole fraction) (in methyl acetate, 318.15 K): 0.052
- solubility (mole fraction) (in methyl acetate, 323.15 K): 0.0821
- solubility (mole fraction) (in n-butanol, 283.15 K): 0.0531
- solubility (mole fraction) (in n-butanol, 288.15 K): 0.0697
- solubility (mole fraction) (in n-butanol, 293.15 K): 0.084
- solubility (mole fraction) (in n-butanol, 298.15 K): 0.103
- solubility (mole fraction) (in n-butanol, 303.15 K): 0.121
- solubility (mole fraction) (in n-butanol, 308.15 K): 0.145
- solubility (mole fraction) (in n-butanol, 313.15 K): 0.175
- solubility (mole fraction) (in n-butanol, 318.15 K): 0.207
- solubility (mole fraction) (in n-butanol, 323.15 K): 0.242
- solubility (mole fraction) (in n-butyl acetate, 283.15 K): 0.00312
- solubility (mole fraction) (in n-butyl acetate, 288.15 K): 0.00346
- solubility (mole fraction) (in n-butyl acetate, 293.15 K): 0.00409
- solubility (mole fraction) (in n-butyl acetate, 298.15 K): 0.00536
- solubility (mole fraction) (in n-butyl acetate, 303.15 K): 0.00667
- solubility (mole fraction) (in n-butyl acetate, 308.15 K): 0.00833
- solubility (mole fraction) (in n-butyl acetate, 313.15 K): 0.0103
- solubility (mole fraction) (in n-butyl acetate, 318.15 K): 0.0137
- solubility (mole fraction) (in n-butyl acetate, 323.15 K): 0.0171
- solubility (mole fraction) (in n-pentanol, 283.15 K): 0.0417
- solubility (mole fraction) (in n-pentanol, 288.15 K): 0.05
- solubility (mole fraction) (in n-pentanol, 293.15 K): 0.0609
- solubility (mole fraction) (in n-pentanol, 298.15 K): 0.0755
- solubility (mole fraction) (in n-pentanol, 303.15 K): 0.0901
- solubility (mole fraction) (in n-pentanol, 308.15 K): 0.113
- solubility (mole fraction) (in n-pentanol, 313.15 K): 0.14
- solubility (mole fraction) (in n-pentanol, 318.15 K): 0.167
- solubility (mole fraction) (in n-pentanol, 323.15 K): 0.212
- solubility (mole fraction) (in n-propanol, 283.15 K): 0.0668
- solubility (mole fraction) (in n-propanol, 288.15 K): 0.0825
- solubility (mole fraction) (in n-propanol, 293.15 K): 0.099
- solubility (mole fraction) (in n-propanol, 298.15 K): 0.127
- solubility (mole fraction) (in n-propanol, 303.15 K): 0.158
- solubility (mole fraction) (in n-propanol, 308.15 K): 0.191
- solubility (mole fraction) (in n-propanol, 313.15 K): 0.237
- solubility (mole fraction) (in n-propanol, 318.15 K): 0.281
- solubility (mole fraction) (in n-propanol, 323.15 K): 0.327
- solubility (mole fraction) (in n-propyl acetate, 283.15 K): 0.0037
- solubility (mole fraction) (in n-propyl acetate, 288.15 K): 0.00414
- solubility (mole fraction) (in n-propyl acetate, 293.15 K): 0.00487
- solubility (mole fraction) (in n-propyl acetate, 298.15 K): 0.00685
- solubility (mole fraction) (in n-propyl acetate, 303.15 K): 0.00834
- solubility (mole fraction) (in n-propyl acetate, 308.15 K): 0.0107
- solubility (mole fraction) (in n-propyl acetate, 313.15 K): 0.013
- solubility (mole fraction) (in n-propyl acetate, 318.15 K): 0.0171
- solubility (mole fraction) (in n-propyl acetate, 323.15 K): 0.021
